# Measurements: patent US20130164337A1, “ANTIMICROBIAL ACTION PHARMACEUTICAL COMPOSITION FOR PARENTERAL ADMINISTRATION AND ITS PRODUCTION PROCESS” (priority 2010, published 2013)
# Tests used:
# Test in all cases: Experimental sepsis model in mice, survival on the 7th day
# Type in all cases: in vivo
# [1] = test system: Escherichia coli (ATCC 25922 F-50); settings: Escherichia coli 8×10^8 CFU/mouse; 100 mg/kg intravenous daily during 3 days; hybrid mice (CBA×C57Black/6)CBF1
# Text: (§1) To determine therapeutic efficiency of betalactam and their pharmaceutical compositions including BHSiO2, we used experimental sepsis models and a statistical processing method of the received data (χ^2) according to [22, 23].
# (§2) Microorganisms: Staphylococcus aureus (ATCC ? 25923 F-49), Escherichia coli (ATCC ? 25922 F-50), Pseudomonas aeruginosa (ATCC ? 27853 F-51).
# (§3) Animals: for the experiments we used hybrid mice (CBA×C57Black/6)CBF1 according to the “Regulations for test animals use” (USSR Ministry of health order supplement ? 755 from 12.08. 1977).
# (§4) The mice have been injected 0.8 ml of Pseudomonas aeruginosa daily culture suspension with a dosage 5×10^8 CFU/mouse or Staphylococcus aureus daily culture suspension with a dosage of 10^10 CFU/mouse or Escherichia coli daily culture suspension with a dosage of 8×10^8 CFU/mouse.
# (§5) The control group has been injected with 0.8 ml of normal saline solution (0.9% sodium chloride solution). In a day after being infected the test mice have been daily (during 3 days) intravenous injected with 100 mg/kg of antibiotics or different pharmaceutical compositions (antibiotic/BHSiO2) watered down with 0.25 ml of normal saline solution. The control group of mice has been injected using the same scheme with normal saline solution […].
# (§6) Antibacterial therapy efficiency was evaluated basing on the quantity of the surviving animals on the 7th day after being infected.
# (§7) The obtained data shown in Table ? 3 reflect the results of 3 independent experiments (for each preparation research were used not less than 30 test animals in total).
# [2] = test system: Pseudomonas aeruginosa (ATCC 27853 F-51); settings: Pseudomonas aeruginosa 5×10^8 CFU/mouse; 100 mg/kg intravenous daily during 3 days; hybrid mice (CBA×C57Black/6)CBF1
# Text: as §1, §2, §3, §4, §5, §6, §7
# [3] = test system: Staphylococcus aureus (ATCC 25923 F-49); settings: Staphylococcus aureus 10^10 CFU/mouse; 100 mg/kg intravenous daily during 3 days; hybrid mice (CBA×C57Black/6)CBF1
# Text: as §1, §2, §3, §4, §5, §6, §7
SMILES,Mice survival rate on the 7th day of infection [1],Mice survival rate on the 7th day of infection [2],Mice survival rate on the 7th day of infection [3]
C[C@H]1[C@H](NC(=O)/C(=N\OC(C)(C)C(=O)O)c2csc(N)n2)C(=O)N1S(=O)(=O)O [Aztreonam],77.5% (31/40),74.4% (32/43),
CC1(C)S[C@@H]2[C@H](NC(=O)C(C(=O)O)c3ccccc3)C(=O)N2[C@H]1C(=O)O (stereo partly drawn) [Carbenicillin],43.3% (13/30),43.3% (13/30),46.7% (14/30)
Cc1nnc(SCC2=C(C(=O)O)N3C(=O)[C@@H](NC(=O)Cn4cnnn4)[C@H]3SC2)s1 [Cefazolin],,,37.5% (12/32)
CO/N=C(\C(=O)N[C@@H]1C(=O)N2C(C(=O)[O-])=C(C[N+]3(C)CCCC3)CS[C@H]12)c1csc(N)n1 [Cefepime],43.7% (14/32),46.7% (14/30),46.7% (14/30)
CCN1CCN(C(=O)N[C@@H](C(=O)N[C@@H]2C(=O)N3C(C(=O)O)=C(CSc4nnnn4C)CS[C@H]23)c2ccc(O)cc2)C(=O)C1=O [Cefoperazone],45.2% (14/31),40.0% (12/30),
CO/N=C(\C(=O)N[C@@H]1C(=O)N2C(C(=O)O)=C(COC(C)=O)CS[C@H]12)c1csc(N)n1 [Cefotaxime],43.3% (13/30),,40.0% (12/30)
CO[C@@]1(NC(=O)Cc2cccs2)C(=O)N2C(C(=O)O)=C(COC(N)=O)CS[C@@H]21 [Cefoxitin],46.7% (14/30),,35.2% (15/34)
CC(C)(O/N=C(\C(=O)N[C@@H]1C(=O)N2C(C(=O)[O-])=C(C[n+]3ccccc3)CS[C@H]12)c1csc(N)n1)C(=O)O [Ceftazidime],38.7% (15/31),43.3% (13/30),
CO/N=C(\C(=O)N[C@@H]1C(=O)N2C(C(=O)O)=C(CSc3nc(=O)c(=O)[nH]n3C)CS[C@H]12)c1csc(N)n1 [Ceftriaxone],41.9% (13/31),,46.7% (14/30)
CO/N=C(\C(=O)N[C@@H]1C(=O)N2C(C(=O)O)=C(COC(N)=O)CS[C@H]12)c1ccco1 [Cefuroxime],43.7% (14/32),,40.0% (14/35)
C[C@@H](O)[C@H]1C(=O)N2C(C(=O)O)=C(S[C@@H]3CN[C@H](C(=O)N(C)C)C3)[C@H](C)[C@H]12 [Meropenem],78.0% (32/41),73.8% (31/42),73.3% (22/30)
